For one compound, IC50 results are on record in patent US7056654B2, “Screening assay for inhibitors of human cytochrome P-450” (SmithKline Beecham Corporation, priority 1999, dated 2006).

The structures appear in SMILES notation.

The target in this series is T1, CYP2C8 (Homo sapiens, UniProt P10632).
T1 sequence (P10632 1-490): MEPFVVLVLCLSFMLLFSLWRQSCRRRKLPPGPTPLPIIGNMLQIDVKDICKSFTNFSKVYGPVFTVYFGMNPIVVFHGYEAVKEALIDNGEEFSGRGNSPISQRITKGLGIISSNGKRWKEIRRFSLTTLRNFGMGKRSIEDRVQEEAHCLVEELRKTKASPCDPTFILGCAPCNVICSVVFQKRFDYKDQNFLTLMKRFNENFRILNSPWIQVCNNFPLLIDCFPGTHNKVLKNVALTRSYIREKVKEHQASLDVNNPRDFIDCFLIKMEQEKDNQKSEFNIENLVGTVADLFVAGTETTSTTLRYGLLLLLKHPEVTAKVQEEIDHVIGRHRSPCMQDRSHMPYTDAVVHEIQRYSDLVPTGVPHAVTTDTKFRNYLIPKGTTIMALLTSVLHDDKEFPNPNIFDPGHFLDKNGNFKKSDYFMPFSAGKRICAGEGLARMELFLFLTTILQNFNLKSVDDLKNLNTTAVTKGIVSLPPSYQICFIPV
Particulars: pH 7.4.

Experimental: Assay Methodology for CYP2C8
• 400 μM diethoxyfluorescein, (i.e. 0.155 mg/mL in acetonitrile)—store at approx. −20° C. in the dark • 2% (w/v) NaHCO3—store at approx. 4° C. • 50 mM potassium phosphate buffer, pH 7.4
Freshly prepared cofactor solution:—approx. the following per mL of 2% (w/v) NaHCO3 • 1.7 mg NADP, monosodium salt • 7.8 mg glucose-6-phosphate, monosodium salt • 6 Units glucose-6-phosphate dehydrogenase, Type VII from Bakers Yeast Method: • 1) Pre-warm the plate reader oven to 37° C. and pre-warm the lamp for at least 10 minutes. • 2) Mix 2.5 μL of 400 µM diethoxyfluorescein, 5 μL (50 μg) CYP2C8 microsomal protein and 212.5 μL buffer per incubate (giving 4 µM diethoxyfluorescein and 200 μg/mL protein final concentration). • 3) To each well of a 96-well plate add 220 µL of incubation mix and 5 μL of test compound solution (or 5 μL of appropriate solvent for control wells—methanol, DMSO or acetonitrile may be used). • 4) Pre-incubate the multi-well plate in the plate reader at 37° C. for 5 minutes. Pre-warm the cofactor solution at 37° C. for 5 minutes. • 5) Add 25 μL cofactor solution to each well and scan with an excitation wavelength of 485 nm and an emission wavelength of 530 nm with a gain of 80. Scan for 10 cycles at 1 minute intervals.

As usually defined, the IC50 is the concentration that inhibits the measured activity by half. A higher IC50 goes with weaker potency in that assay. With `O=c1c(O)c(-c2ccc(O)c(O)c2)oc2cc(O)cc(O)c12` [quercitin], the IC50 was determined as 3 µM.
